Laboratory results from paper PMC6445138 (2019).
Values belong to the compound of their own block, whether it stands above or below them.

What was measured:
[1] = system: SsPreQ1-RS (unlabeled) (RNA, riboswitch) AGAGGUUCCUAGCUGAUACCCUCUAUAAAAAACUA; assay: WaterLOGSY NMR; conditions: 100 mM KCl, 1 mM MgCl2
[2] = system: BsPreQ1-RS (unlabeled) (RNA, riboswitch) AGAGGUUCUAGCUACACCCUCUAUAAAAAACUAA; assay: WaterLOGSY and CPMG NMR; conditions: 100 mM KCl, 1 mM MgCl2; 50 mM Tris-d11 pH 7.5, 5% DMSO-d6; non-binding control, tested at 375 µM
[3] = system: TtPreQ1-RS (unlabeled) (RNA, riboswitch) CUGGGUCGCAGUAACCCCAGUUAACAAAACAAG; assay: WaterLOGSY and CPMG NMR; conditions: 100 mM KCl, 1 mM MgCl2; 50 mM Tris-d11 pH 7.5, 5% DMSO-d6; non-binding control, tested at 375 µM
[4] = system: 5′-AF647-BsPreQ1-RS (RNA, riboswitch) GGAGAGGUUCUAGCUACACCCUCUAUAAAAAACUAA; assay: in-line probing; conditions: 10 mM KCl, 2 mM MgCl2
[5] = system: ab13_14 (RNA, riboswitch, abasic at 13 and 14) CUGGGUCGCAGUNNCCCCAGUUAACAAAACAAG; assay: X-ray crystallography
[6] = system: Ss PreQ1 TTA transcript (RNA, riboswitch) AUGUAGUAAGGAGGUUGUAUGGAAGACGAGAGGUUCCUAGCUGAUACCCUCUAUAAAAAACUAGACACAUGUACAACGUCUGUCUUUUUUAUAGAGAUAGGCGUUUUUUUAUGCGCUUAUCUAAACCCUGUACCAGUUAGUUCGACUAUUUUUAAGGAGU; assay: single-round in vitro transcription termination; conditions: KCl, MgCl2; 20 mM Tris-HCl pH 8.0, 37 °C, E. coli RNA polymerase
[7] = system: 5′-Cy5-BsPreQ1-RS (RNA, riboswitch) AGAGGUUCUAGCUACACCCUCUAUAAAAAACUAA; assay: fluorescence intensity titration of labelled RNA; conditions: 100 mM KCl, 1 mM MgCl2; 50 mM Tris pH 7.5, 10% DMSO, room temperature, RNA 50 nM; apparent
[8] = system: 5′-AF647-TtPreQ1-RS (RNA, riboswitch) CUGGGUCGCAGUAACCCCAGUUAACAAAACAAG; assay: fluorescence intensity titration of labelled RNA; conditions: 100 mM KCl, 1 mM MgCl2; 50 mM Tris pH 7.5, 10% DMSO, room temperature, RNA 50 nM; apparent
[9] = system: ab13_14_15 (RNA, riboswitch, abasic at 13, 14 and 15) CUGGGUCGCAGUNNNCCCAGUUAACAAAACAAG; assay: X-ray crystallography
[10] = system: BsPreQ1-RS (unlabeled) (RNA, riboswitch) AGAGGUUCUAGCUACACCCUCUAUAAAAAACUAA; assay: inherent ligand fluorescence titration; conditions: 100 mM KCl, 1 mM MgCl2; 50 mM Tris pH 7.5, 5% DMSO, room temperature, compound 500 nM
[11] = system: TtPreQ1-RS (unlabeled) (RNA, riboswitch) CUGGGUCGCAGUAACCCCAGUUAACAAAACAAG; assay: inherent ligand fluorescence titration; conditions: 100 mM KCl, 1 mM MgCl2; 50 mM Tris pH 7.5, 5% DMSO, room temperature, compound 500 nM

SMILES: CN[C@H](C(=O)O)C(C)C
binding ([1]; 50 mM Tris-d11 pH 7.5, 5% DMSO-d6, non-binding control, tested at 375 µM): no | binding [2]: no | binding [3]: no

SMILES: CN(C)CCOc1ccc2oc3ccccc3c2c1
binding ([5]; 1.94 Å): yes | KD [7]: 400 ± 100 nM | KD [8]: 600 ± 200 nM

SMILES: NCCOc1ccc2oc3ccccc3c2c1
binding ([1]; 50 mM Tris-d11 pH 7.5, 5% DMSO-d6, compound 375 µM): yes | binding ([4]; 50 mM Tris pH 8.3, 5% DMSO, room temperature, compound 0.1-300 µM): yes | binding ([5]; 1.8 Å): yes | binding ([9]; 1.8 Å): yes | KD [10]: 490 ± 368 nM | KD [11]: 99 ± 38 nM | EC50 [6]: 359 ± 23 µM | KD [7]: 534 ± 123 nM | KD [8]: 457 ± 202 nM

The next lines start with the values.

binding ([4]; 50 mM Tris pH 8.3, room temperature, compound 10 µM): yes | binding ([5]; 1.69 Å): yes | EC50 [6]: 0.036 ± 0.005 µM | KD [7]: 4.1 ± 0.6 nM | KD [8]: 2.8 ± 0.4 nM
SMILES: NCc1c[nH]c2nc(N)[nH]c(=O)c12

binding ([9]; 2.56 Å): yes | KD [7]: 100 ± 80 nM | KD [8]: 100 ± 40 nM
SMILES: CN(C)CCOc1ccc2[nH]c3ccccc3c2c1
